Experimental data: ChEMBL document CHEMBL1201862, “PubChem BioAssay data set” (2004)
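All cell lines were grown in 96-well plates and treated with compound for 48 hours. The concentration for 50% growth inhibition is given as GI50.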 Calls of active or inactive are those of the source. Rule as the data show it: active = GI50 up to about 1.1 µM and inactive = higher.

Tests used:
Assay in all cases: NCI-60 cell line screen, 48 h
[1] = tested on: BT-549
[2] = tested on: CAKI-1
[3] = tested on: EKVX
[4] = tested on: HCC 2998
[5] = tested on: HCT-116
[6] = tested on: HL-60
[7] = tested on: HOP-62
[8] = tested on: HOP-92
[9] = tested on: IGROV-1
[10] = tested on: KM12
[11] = tested on: MDA-N
[12] = tested on: OVCAR-8
[13] = tested on: SF-295
[14] = tested on: SK-MEL-28
[15] = tested on: SK-MEL-2
[16] = tested on: SK-MEL-5
[17] = tested on: SK-OV-3
[18] = tested on: SNB-19
[19] = tested on: SNB-75
[20] = tested on: UO-31

Measured: GI50

CC(C)OC(=O)Nc1cccc(Cl)c1 [CHLORPROPHAM]
inactive: [1] 87.7 µM | [2] > 100 µM | [3] 63.1 µM | [4] > 100 µM | [5] > 100 µM | [6] > 100 µM | [7] > 100 µM | [8] > 100 µM | [9] > 100 µM | [10] 70.1 µM | [11] > 100 µM | [12] > 100 µM | [13] > 100 µM | [14] > 100 µM | [15] > 100 µM | [16] > 100 µM | [17] > 100 µM | [18] > 100 µM | [19] 40.7 µM | [20] > 100 µM

COCC1OC(OC2OCC3OC4(OCC(O)(C(C)OC)C5OCOC54)OC3C2OC)C(OC)C(O)C1OC1OC(C)C(OC)C(OC2OC(C)C3OC4(CC(O)C(OC5CC(OC6CC(C)([N+](=O)[O-])C(OC)C(C)O6)C(OC(=O)c6c(C)c(Cl)c(O)c(Cl)c6OC)C(C)O5)C(C)O4)OC3(C)C2O)C1O (stereo not given)
inactive: [1] > 100 µM | [2] > 100 µM | [3] > 100 µM | [4] > 100 µM | [5] > 100 µM | [6] > 100 µM | [7] > 100 µM | [8] > 100 µM | [9] > 100 µM | [10] > 100 µM | [11] > 100 µM | [12] > 100 µM | [13] > 100 µM | [14] > 100 µM | [15] > 100 µM | [16] > 100 µM | [17] > 100 µM | [18] > 100 µM | [19] > 100 µM | [20] > 100 µM
